US20170327471A1, “Aryl sulphide and aryl sulphoxide derivatives having C-C-attached uracils as pesticides” (BAYER CROPSCIENCE AKTIENGESELLSCHAFT, priority 2014, published 2017)
Read-outs that look alike come from different tables or passages of the source.

What was measured:
Tetranychus urticae = Tetranychus urticae spray test, OP-resistant (bean leaf discs); assay type: in vivo; conditions: application rate 500 g/ha, after 6 days
Experimental: 4. Tetranychus urticae—Spray Test, OP-Resistant Solvent: 78.0 parts by weight of acetone • • 1.5 parts by weight of dimethylformamide Emulsifier: alkylaryl polyglycol ether
To produce a suitable preparation of active compound, 1 part by weight of active compound is dissolved using the stated parts by weight of solvent and made up with water containing an emulsifier concentration of 1000 ppm until the desired concentration is attained. To produce further test concentrations, the preparation is diluted with emulsifier-containing water.
Discs of bean leaves (Phaseolus vulgaris) infested with all stages of the greenhouse red spider mite (Tetranychus urticae) are sprayed with an active compound preparation of the desired concentration.
After 6 days, the efficacy in % is determined. 100% means that all the spider mites have been killed; 0% means that none of the spider mites have been killed.

[1] = logP by reversed-phase HPLC (EEC Directive 79/831 Annex V.A8); assay type: physicochemical; conditions: for chromatographic logP: reversed-phase C18 HPLC column
Experimental: The logP values were determined in accordance with EEC Directive 79/831 Annex V.A8 by HPLC (High Performance Liquid Chromatography) using reversed-phase columns (C 18) by the following methods:
^[a] The LC-MS determination in the acidic range was effected at pH 2.7 with 0.1% aqueous formic acid and acetonitrile (contains 0.1% formic acid) as eluents; linear gradient from 10% acetonitrile to 95% acetonitrile. Called logP (HCOOH) in the table.
^[b] LC-MS determination in the neutral range was effected at pH 7.8 with 0.001 molar aqueous ammonium hydrogencarbonate solution and acetonitrile as eluents; linear gradient from 10% acetonitrile to 95% acetonitrile. Called logP (neutral) in the table.
Calibration was effected with unbranched alkan-2-ones (having 3 to 16 carbon atoms) with known logP values (logP values determined on the basis of the retention times by linear interpolation between two successive alkanones).

Boophilus microplus = Boophilus microplus injection test; assay type: in vivo; conditions: application rate, injection into engorged adult female cattle ticks, after 7 days
Experimental: 1. Boophilus microplus—Injection Test Solvent: dimethyl sulphoxide
To produce a suitable preparation of active compound, 10 mg of active compound are mixed with 0.5 ml of solvent and the concentrate is diluted with solvent to the desired concentration.
1 μl of the active compound solution is injected into the abdomen of 5 engorged adult female cattle ticks (Boophilus microplus). The animals are transferred into dishes and kept in a climate-controlled room.
Efficacy is assessed after 7 days by laying of fertile eggs. Eggs which are not visibly fertile are stored in a climate-controlled cabinet until the larvae hatch after about 42 days. An efficacy of 100% means that none of the ticks has laid any fertile eggs; 0% means that all the eggs are fertile.

[2] = acidic range, pH 2.7, 0.1% aqueous formic acid/acetonitrile, read-out: logP (HCOOH) = logP[a]
[3] = acidic range, pH 2.7, 0.1% aqueous formic acid/acetonitrile
[4] = neutral range, pH 7.8, 0.001 molar aqueous ammonium hydrogencarbonate/acetonitrile
[5] = neutral range, pH 7.8, 0.001 molar aqueous ammonium hydrogencarbonate/acetonitrile, read-out: logP (neutral) = logP[b]

SMILES	chromatographic logP [1, 2]	logP (HCOOH) = logP[a] [1, 3]	logP (neutral) = logP[b] [1, 4]	chromatographic logP [1, 5]	efficacy (spider mites killed) (Tetranychus urticae) [%]	efficacy (no fertile eggs laid) (Boophilus microplus) [%]
Cc1cc(F)c(-c2cc(=O)n(C)c(=O)[nH]2)cc1SCC(F)(F)F [Example I-13, 6-{2-Fluoro-4-methyl-5-[(2,2,2-trifluoroethyl)sulphanyl]phenyl}-3-methylpyrimidine-2,4(1H,3H)-dione]	2.38	–	–	2.25	–	–
Cc1cc(F)c(-c2cc(=O)n(C(C)C)c(=O)n2C(C)C)cc1SCC(F)(F)F [Example I-6]	–	4.52	4.42	–	100	–
CCn1c(=O)c(F)c(-c2cc([S+]([O-])CC(F)(F)F)c(C)cc2F)n(C)c1=O (stereo not shown) [Example I-11]	–	2.20	2.19	–	100	100
Cc1cc(F)c(-c2cc(=O)n(C(C)C)c(=O)n2C(C)C)cc1[S+]([O-])CC(F)(F)F (stereo not shown) [Example I-9]	–	3.19	3.10	–	100	100
Cc1cc(F)c(-c2cc(=O)n(C)c(=O)[nH]2)cc1[S+]([O-])CC(F)(F)F (stereo not shown) [Example I-17]	–	1.41	1.43	–	–	–
CCn1c(=O)c(F)c(-c2cc(SCC(F)(F)F)c(C)cc2F)n(C)c1=O [Example I-3, 3-Ethyl-5-fluoro-6-{2-fluoro-4-methyl-5-[(2,2,2-trifluoroethyl)-sulphanyl]phenyl}-1-methylpyrimidine-2,4(1H,3H)-dione]	3.32	–	–	3.42	–	–
CCn1c(=O)[nH]c(-c2cc(SCC(F)(F)F)c(C)cc2F)c(F)c1=O [Example I-8]	–	2.72	–	–	–	–

Continued, in another order:

chromatographic logP [1, 2]	logP (HCOOH) = logP[a] [1, 3]	logP (neutral) = logP[b] [1, 4]	chromatographic logP [1, 5]	SMILES	efficacy (spider mites killed) (Tetranychus urticae) [%]	efficacy (no fertile eggs laid) (Boophilus microplus) [%]
3.15	–	–	–	Cc1cc(F)c(-c2c(Cl)c(=O)n(C)c(=O)n2C)cc1SCC(F)(F)F [Example I-16, 5-Chloro-6-{2-fluoro-4-methyl-5-[(2,2,2-trifluoroethyl)sulphanyl]phenyl}-1,3-dimethylpyrimidine-2,4(1H,3H)-dione]	90	–
2.98	–	–	–	Cc1cc(C)c(-c2cc(=O)n(C)c(=O)n2C)cc1SCC(F)(F)F [Example I-4]	–	–
–	1.89	1.82	–	Cc1cc(C)c([S+]([O-])CC(F)(F)F)cc1-c1cc(=O)n(C)c(=O)n1C (stereo not shown) [Example I-12]	100	100
2.34	–	–	1.54	Cc1cc(F)c(-c2cc(=O)[nH]c(=S)[nH]2)cc1SCC(F)(F)F [Example I-14, 6-{2-Fluoro-4-methyl-5-[(2,2,2-trifluoroethyl)sulphanyl]phenyl}-2-thioxo-2,3-dihydropyrimidin-4(1H)-one]	–	–
–	4.26	4.16	–	CCCn1c(-c2cc(SCC(F)(F)F)c(C)cc2F)cc(=O)n(CCC)c1=O [Example I-5]	90	–
1.59	–	–	–	CCn1c(=O)c(C)c(Cl)n(C)c1=O [II-02, 6-chloro-3-ethyl-1,5-dimethylpyrimidine-2,4(1H,3H)-dione]	–	–
1.31	–	–	–	CCn1c(=O)c(F)c(Cl)n(C)c1=O [II-01, 6-chloro-3-ethyl-5-fluoro-1-methylpyrimidine-2,4(1H,3H)-dione]	–	–
3.57	–	–	3.59	CCOC(=O)CC(=O)c1cc(SCC(F)(F)F)c(C)cc1F [VI-01, ethyl 3-{2-fluoro-4-methyl-5-[(2,2,2-trifluoroethyl)sulphanyl]phenyl}-3-oxopropanoate]	–	–
